Data on two compounds can be found in patent US20150374784A1, “COMPOSITIONS AND METHODS FOR REDUCING GERM CELL DEATH” (Los Angeles Biomedical Research Institute at Harbor-UCLA …, priority 2014, published 2015).

One series concerns male germ cells. The class given is in vivo. To be noted: B16 tumor-bearing mice. On the procedure:
(§1) A total of 25 young adult mice (10-12 weeks) were randomly divided into 5 groups (n=5 per group). Five mice were used as control. Twenty mice were inoculated intravenously with B16 murine melanoma cells (2×10^5 cells/mouse). Among these 20 tumor-inoculated mice, 5 mice received no further treatment. After one week, the remaining 15 mice were divided into 3 groups and injected with: 1) HNG daily IP (5 mg/Kg body weight) for 2 weeks; 2) CP (200 mg/Kg body weight IP single injection); 3) combined CP with HNG treatment (same doses as above). All mice were sacrificed 3 weeks after tumor inoculation, and 2 weeks after HNG and/or CP treatment. The animals were sacrificed with 5% pentobarbital (200 mg/kg body weight) IP injection after which blood was collected from the right atrium of the heart. One of the testes from each mouse was immersed fixed in Bouin's solution, and the mice were perfused with saline and subsequently perfuse-fixed with 5% glutaraldehyde in 0.05 M cacodylate buffer (pH 7.4). The lungs were dissected out and post fixed in 5% glutaraldehyde solution for 24 hours and stored in cacodylate buffer at 4° C. for the subsequent tumor count (Lue, et al., 2010; Lue, et al., 2009).

Series [1] concerns B16 murine melanoma cells. The series can be described thus: Metastatic lung tumors in mouse B16 melanoma model (Experiments 3 and 4). The class given is in vivo. On the procedure: as §1
Experiment 3 was repeated after inoculation of B16 melanoma tumor at week 1 and then treated with the following treatment starting at week 2 (n=5 mice per group): 1). No treatment; 2). HNG IP injections 5 mg/Kg daily; 3) CP 200 mg/Kg single IP injection; 4) HNG 5 mg/Kg/day+CP; 5). HNG IP injections 15 mg/Kg daily; and 6). HNG 15 mg/Kg/day+CP. All animals were euthanized and perfused with 4% paraformaldehyde at the end of week 3. Lungs and testes were collected and processed as in experiment 3.
B16 melanoma tumors in the lung were quantified by counting the number of tumors on the surface of the lungs under stereomicroscopy (Collisson, et al., 2003; Craft, et al., 2005). The size of the tumor was measured using histomorphometry and expressed as average size of tumor. The appearance of the melanoma cells were reviewed and characterized by an expert pathologist.

The next series deals with 4T1 cells. The series can be described thus: 4T1 mouse mammary cancer model, tumor size and weight. The settings on record: in vivo. The protocol:
A mouse mammary cancer model was used which utilizes 4T1 cells transfected with the luciferase gene. Growth and size of 4T1 mammary tumors were detected by bioluminescence imaging (IVIS Luminia II, Perkin Elmer, Waltham, Mass.). Mice (n=5 to 7 per group) were inoculated with 1×10^6 4 T1 cells into the right third mammary gland, and 7 days later they were left untreated or treated with HNG (5 mg/kg/day IP), CP (100 mg/Kg single IP) or HNG+CP for 14 days. Bioluminescence imaging was conducted at days 7 and 12. Animals were sacrificed and tumors were removed on day 14 after the start of treatment. Mammary tumors were smaller in CP and CP+HNG groups compared to the untreated and HNG-treated animals (Data images not shown).

The test system of series [2] is IGF-1. The series can be described thus: Plasma IGF-1 in mice bearing metastatic lung melanomas. It counts as in vivo, mouse. To be noted: 14 days; HNG 5 mg/kg/day IP; CP 200 mg/kg IP single injection.
In the next series the test system is sperm. The series can be described thus: Cauda epididymal sperm count after multiple doses of CP in mice. The class given is in vivo, mouse. To be noted: 28 days; HNG 10 mg/kg BW daily subcutaneously; CP 150 mg/kg BW IP, 6 doses at 5-day intervals. The protocol:
(§2) The objective of this study was to investigate whether HNG has protective effect on sperm output after multiple doses of CP in mice. Thirty adult male mice (C57BL/6J) were randomized into 4 groups: 1) 5 as control; 2) 5 received daily subcutaneously injection of HNG (10 mg/kg BW); 3) 10 were given 6 doses of CP (150 mg/kg BW) intraperitoneally at 5-day intervals; 4) 10 received both HNG and CP. All mice were killed at 28 days. Plasma HNG and IGF-1 levels were measured by ELISAs. The cauda epididymal sperm count was performed using a hemocytometer.

Series [3] deals with IGF-1. The series can be described thus: Plasma IGF-1 levels by ELISA after multiple doses of CP. The class given is in vivo, mouse. The settings on record: 28 days; HNG 10 mg/kg BW daily subcutaneously; CP 150 mg/kg BW IP, 6 doses. The protocol:
as §2
(In general: In an ELISA, binding on a coated surface is turned into a signal by an enzyme label.)

In the next series the test system is mouse B16 melanoma cells. The series can be described thus: Number of metastatic lung tumors, B16 melanoma (Example 9). The class given is in vivo. The settings on record: day 21; CP 200 mg/kg single IP; HNG 5 mg/kg daily IP 14 days. On the procedure: (§3) Methods: Adult male mouse (n=5/group) were seeded with mouse B16 melanoma cells (100,000 cells/mouse) via tail vein on day 1. One week after melanoma cell inoculation, mice were treated either with a single intraperitoneal injection (IP) of CP (200 mg/kg), or daily IP injections of HNG (5 mg/kg), or both for 14 days. Mice were sacrificed at day 21 and lungs were fixed in formaldehyde. Immunohistochemistry was performed on lung metastases with antibodies against phosphorylated-AMPK (p-AMPK), p-4E-BP1 (downstream effector of mTOR) and Ki-67 antigen (a marker of cell proliferation).

The next series relates to Ki-67 antigen. The series can be described thus: Immunohistochemistry of lung metastases: Ki-67. To be noted: CP 200 mg/kg single IP, HNG 5 mg/kg daily IP 14 days. The class given is in vivo, mouse. The protocol: as §3
In series [4] the test system is HEK293 (normal embryonic kidney cells). The series can be described thus: Autophagy induction (LC3-II, mRFP-GFP-LC3) in HEK293. The class given is cell-based. From the text: (§4) The increased level of LC3-II, a marker of autophagosome was examined by Western blot and immunocytochemistry. The increase of autophagosomes and autolysosomes in HEK293 cells stably expressing mRFP-GFP-LC3, a dual-tag reporter of autophagy, was examined following humanin treatment. In addition, the signaling pathways activated by humanin using a phospho-antibody array in SH-SY5Y cells was investigated. […] Both activation and suppression of autophagy are involved in cancer pathogenesis and treatment, depending on the context.

Another series deals with SH-SY5Y (neuroblastoma). The series can be described thus: Autophagy induction in SH-SY5Y. The class given is cell-based.
From the text: as §4

The next series has as its system B16 (melanoma). The series can be described thus: Autophagy induction in B16 (fluorescent microscopy, western blot of LC3-II). It counts as cell-based, mouse. In general terms: In western blotting, separated proteins are transferred to a membrane and probed.
The mark [5] stands for this setting: Experiment 4, vs non-treated, HNG at both 5 mg/kg BW and 15 mg/kg BW, CP 200 mg/Kg.

“Also recorded” adds a separate entry of the source.

In the case of `O=P1(N(CCCl)CCCl)NCCCO1` (stereo not shown) [CP, cyclophosphamide monohydrate], the testis weight result with male germ cells (2 weeks after CP 200 mg/Kg single IP) is reported as “significantly decreased the testis weight”. Moreover, the “germ cell apoptosis (percent of seminiferous tubules containing apoptotic germ cells)” value with male germ cells (2 weeks after treatment, CP 200 mg/Kg single IP, HNG 5 mg/Kg daily IP) is “significantly increased germ cell apoptosis”. In addition, the “size of the melanoma metastasis on the surface of the lungs” value in series [1] (Experiment 3, vs non-treated tumor-bearing mice) is on record as “decreased number of tumors but also tumor size”. The “number of metastatic tumors on the surface of the lungs” value in series [1] (Experiment 3, vs non-treated tumor-bearing mice, HNG 5 mg/Kg daily IP 2 weeks, CP 200 mg/Kg single IP) is recorded as “decreased number of tumors”. In series [1] (setting [5]), the “number of lung tumors” value is “significantly decreased both the number and size of the tumors”; the “size of the lung tumors” value is “significantly decreased both the number and size of the tumors”. Also, the “histology of metastatic lung melanoma cells” value in [1] (HNG 5 mg/kg BW, CP, or both, monohydrate) is listed as “decreased the number of metastatic melanoma cells; also recorded: induced minor differentiation of melanoma cells”. In the series on 4T1 cells, the “mammary tumor size (bioluminescence imaging)” value is listed as “smaller”. In addition, in the series on IGF-1 [2], the “plasma IGF-1 levels” value was “modestly suppressed IGF-1”. Also, the “cauda epididymal sperm count” value with sperm is reported as 0.5±0.1 ×10^6/mg. Further, the “plasma IGF-1 levels” value in the series on IGF-1 [3] came out at 182.4 ± 10.5 ng/mL. The “decrease in number of metastatic lung tumors compared to non-treated mice” value with mouse B16 melanoma cells was around 50%. The “mean Ki-67 index” value with Ki-67 antigen was determined as 30.0±16.2.

“MAPRGFSCLLLLTSEIDLPVKRRA [HN, 24-amino acid mitochondrial derived peptide]”: the autophagy result (in series [4]; in the series with SH-SY5Y (neuroblastoma); in the series on B16 (melanoma)) was “induces autophagy” throughout.
